Where two headings read alike, the source gives them in different places.
What was measured:
[1] = CNS functional observational battery; assay type: in vivo; settings: rat, PO up to 100 mg/kg
[2] = target: T1, P-gp (Homo sapiens, UniProt P08183); assay: P-glycoprotein inhibition (digoxin transport); assay type: in vitro ADME
T1 construct: expressed in transfected cells; host or cells: MDCKII-MDR1 cells
Text: Further understanding of DDI risk will await definition of Phase 2 doses and exposures.

[3] = system: PC9GR4 cells (Ex19del/T790M); settings: PC9GR4 cell line; Wang 2020; read-out: IC50, growth inhibition; cited from earlier work
[4] = system: CYP3A4/3A5; assay: CYP phenotyping, human liver microsomes; assay type: in vitro ADME
Text: Metabolism, inhibition and induction were not observed with other CYPs. Potential DDI interactions exist with drugs that are inhibitors of CYP3A4-T or those metabolized by CYP3A4/3A5; these DDI risks will be better defined once there are human pharmacokinetics (PK) data.

[5] = Oral dog 4-week toxicity study with toxicokinetics; assay type: in vivo, beagle dogs; settings: for HNSTD: 4-week oral
Method: Compound 1 (0, 10, 30, and 100 mg/kg/day) was given orally, once daily by gavage, to male and female beagle dogs (4/sex) for up to 28 days. […] The cause of death in this high-dose male was attributed to myocardial degeneration. This lesion was not observed in any other dog on study. Increases in alkaline phosphatase, globulin, cholesterol, triglycerides and fibrinogen and decreased reticulocyte counts noted in the high-dose group at mid-study returned towards baseline by the end of the study following 11/12 days of recovery. Testicular changes at all doses (seminiferous epithelial vacuolation at 10 and 30 mg/kg and degeneration/atrophy at 100 mg/kg) were not reversible in this short-term study; the reversibility period was not long enough to assess reversibility of testicular changes.
The increases were generally dose-proportional or greater-than dose-proportional on Day 1 and Day 28. Gender difference was not observed. No significant accumulation of Compound 1 or Compound 2 was observed.
Thirty-two beagle dogs (conventional, naive) were divided into four groups. Each group consists of four male and four female. Group 1 beagle dogs were administered vehicle and groups 2-4 beagle dogs were administered Compound 1 at 10 mg/kg, 30 mg/kg, and 100 mg/kg, respectively, by oral gavage once daily for 28 consecutive days (Table 15). […] Cmax (ng/mL) and AUClast (hr*ng/mL) of Compound 1 on day 1 were obtained for groups 2-4 (Table 15).

[6] = both sexes, beagle, in vivo, dog, day 1, oral gavage

T1 sequence (P08183 whole entry): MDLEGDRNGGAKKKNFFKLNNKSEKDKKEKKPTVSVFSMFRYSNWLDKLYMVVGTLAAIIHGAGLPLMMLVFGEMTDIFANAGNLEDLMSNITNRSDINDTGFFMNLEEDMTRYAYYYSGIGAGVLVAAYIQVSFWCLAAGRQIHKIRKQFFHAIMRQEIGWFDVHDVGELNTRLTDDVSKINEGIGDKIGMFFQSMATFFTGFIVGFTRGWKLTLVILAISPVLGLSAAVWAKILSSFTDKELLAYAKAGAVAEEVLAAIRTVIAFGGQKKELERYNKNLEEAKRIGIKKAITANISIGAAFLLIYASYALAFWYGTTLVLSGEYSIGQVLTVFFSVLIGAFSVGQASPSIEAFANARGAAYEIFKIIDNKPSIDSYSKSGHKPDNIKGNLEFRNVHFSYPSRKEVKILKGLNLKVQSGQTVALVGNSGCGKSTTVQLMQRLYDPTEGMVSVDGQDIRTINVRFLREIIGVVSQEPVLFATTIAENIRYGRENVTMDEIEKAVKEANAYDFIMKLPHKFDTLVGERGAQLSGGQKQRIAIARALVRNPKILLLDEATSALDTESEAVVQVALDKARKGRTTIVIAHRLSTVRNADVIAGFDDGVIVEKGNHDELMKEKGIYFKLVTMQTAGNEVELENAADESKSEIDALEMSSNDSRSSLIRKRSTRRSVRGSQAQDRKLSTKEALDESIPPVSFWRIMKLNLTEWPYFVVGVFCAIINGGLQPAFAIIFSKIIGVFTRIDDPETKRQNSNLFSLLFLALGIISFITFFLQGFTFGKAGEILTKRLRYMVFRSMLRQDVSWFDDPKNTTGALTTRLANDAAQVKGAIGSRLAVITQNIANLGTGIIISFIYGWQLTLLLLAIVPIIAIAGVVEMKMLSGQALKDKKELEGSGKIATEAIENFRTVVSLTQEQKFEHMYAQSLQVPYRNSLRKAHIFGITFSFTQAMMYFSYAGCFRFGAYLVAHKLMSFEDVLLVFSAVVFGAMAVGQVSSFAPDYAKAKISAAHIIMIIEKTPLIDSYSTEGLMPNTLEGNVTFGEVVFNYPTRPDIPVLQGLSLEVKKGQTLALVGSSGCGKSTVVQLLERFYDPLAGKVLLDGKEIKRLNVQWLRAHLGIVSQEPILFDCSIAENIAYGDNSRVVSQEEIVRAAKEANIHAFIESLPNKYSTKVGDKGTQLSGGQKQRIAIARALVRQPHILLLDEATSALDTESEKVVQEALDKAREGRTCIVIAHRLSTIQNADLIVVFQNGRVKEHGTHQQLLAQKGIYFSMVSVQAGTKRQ

Question: With C=CC(=O)Nc1cc(Nc2nccc(-n3ccc4cccnc43)n2)c(OC)cc1N(C)CCN(C)C [Compound 1, N-(5-((4-(1H-pyrrolo[2,3-b]pyridin-1-yl)pyrimidin-2-yl)amino)-2-((2-(dimethylamino)ethyl)(methyl)amino)-4-methoxyphenyl)acrylamide] as the molecule, how does the “CNS effects in functional observational battery” value [1] read?
Answer: The value was “no adverse CNS effects”.

Question: What about the P-gp inhibition [2] of the same molecule?
Answer: The P-gp inhibition was “No P-gp inhibition”.

Question: And the IC50 ([2]; read-out: IC50, P-gp mediated transport of digoxin)?
Answer: The IC50 was over 30000 nM.

Question: What about the IC50 [3] of the same molecule?
Answer: The IC50 was 3.66 nM.

Question: What about the “primarily metabolizing CYP” value [4] of the same molecule?
Answer: The value was “CYP3A4/3A5”.

Question: What about the mortality ([5]; 100 mg/kg/day, attributed to myocardial degeneration) of the same molecule?
Answer: Its mortality is “one male was found dead on Day 13”.

Question: What about the Cmax ([5]; beagle, in vivo, po, dog Day 1, 10 mg/kg/day, Female) of the same molecule?
Answer: Its Cmax is 142 ng/mL.

Question: What about the AUC(0-t) ([5]; beagle, in vivo, po, dog Day 1, 10 mg/kg/day, Female, read-out: AUClast) of the same molecule?
Answer: The AUC(0-t) was 2060 ng·h/mL.

Question: What about the Cmax ([5]; beagle, in vivo, po, dog Day 1, 10 mg/kg/day, Male) of the same molecule?
Answer: The Cmax was 166 ng/mL.

Question: What about the AUC(0-t) ([5]; beagle, in vivo, po, dog Day 1, 10 mg/kg/day, Male, read-out: AUClast) of the same molecule?
Answer: The AUC(0-t) was 1650 ng·h/mL.

Question: And the Cmax ([5]; beagle, in vivo, po, dog Day 1, 30 mg/kg/day, Female)?
Answer: Its Cmax is 170 ng/mL.

Question: What about the AUC(0-t) ([5]; beagle, in vivo, po, dog Day 1, 30 mg/kg/day, Female, read-out: AUClast) of the same molecule?
Answer: Its AUC(0-t) is 1960 ng·h/mL.

Question: What about the Cmax ([5]; beagle, in vivo, po, dog Day 1, 30 mg/kg/day, Male) of the same molecule?
Answer: Its Cmax is 317 ng/mL.

Question: And the AUC(0-t) ([5]; beagle, in vivo, po, dog Day 1, 30 mg/kg/day, Male, read-out: AUClast)?
Answer: Its AUC(0-t) is 3790 ng·h/mL.

Question: And the Cmax ([5]; beagle, in vivo, po, dog Day 1, 100 mg/kg/day, Female)?
Answer: Its Cmax is 293 ng/mL.

Question: What about the AUC(0-t) ([5]; beagle, in vivo, po, dog Day 1, 100 mg/kg/day, Female, read-out: AUClast) of the same molecule?
Answer: The AUC(0-t) was 4060 ng·h/mL.

Question: And the Cmax ([5]; beagle, in vivo, po, dog Day 1, 100 mg/kg/day, Male)?
Answer: Its Cmax is 367 ng/mL.

Question: And the AUC(0-t) ([5]; beagle, in vivo, po, dog Day 1, 100 mg/kg/day, Male, read-out: AUClast)?
Answer: Its AUC(0-t) is 5190 ng·h/mL.

Question: And the NOAEL ([5]; both sexes, beagle, in vivo, oral, 4-week Dog toxicology)?
Answer: The NOAEL was 10 mg/kg.

Question: And the Tmax [5, 6]?
Answer: The Tmax was 4 h.

Question: And the half-life [5, 6]?
Answer: Its half-life is 8 h.

Question: And the “NOEL for myocardial risk” value ([5]; dog)?
Answer: The value was 30 mg/kg.

Question: And the HNSTD ([5]; dog)?
Answer: Its HNSTD is 30 mg/kg.

Question: What about the HNSTD ([5]; dog, estimated) of the same molecule?
Answer: Its HNSTD is 30 mg/kg/day.

Question: And the Cmax ([5]; female, beagle, in vivo, dog Day 28 mean, 10 mg/kg Compound 1 PO, F, Compound 2 as metabolite)?
Answer: Its Cmax is 867 ng/mL.

Question: What about the AUC(0-t) ([5]; female, beagle, in vivo, dog Day 28 mean, 10 mg/kg Compound 1 PO, F, Compound 2 as metabolite, read-out: AUC0-24) of the same molecule?
Answer: Its AUC(0-t) is 6540 ng·h/mL.

Question: And the Cmax ([5]; female, beagle, in vivo, dog Day 28 mean, 30 mg/kg Compound 1 PO, F, Compound 2 as metabolite)?
Answer: The Cmax was 508 ng/mL.

Question: What about the AUC(0-t) ([5]; female, beagle, in vivo, dog Day 28 mean, 30 mg/kg Compound 1 PO, F, Compound 2 as metabolite, read-out: AUC0-24) of the same molecule?
Answer: Its AUC(0-t) is 3490 ng·h/mL.

Question: What about the “human equivalent dose (HED) of the NOEL for myocardial risk” value ([5]; from dog NOEL 30 mg/kg) of the same molecule?
Answer: The value was 15 mg/kg.

Question: And the Cmax ([5]; male, beagle, in vivo, dog Day 28 mean, 10 mg/kg Compound 1 PO, M, Compound 2 as metabolite)?
Answer: Its Cmax is 578 ng/mL.

Question: And the AUC(0-t) ([5]; male, beagle, in vivo, dog Day 28 mean, 10 mg/kg Compound 1 PO, M, Compound 2 as metabolite, read-out: AUC0-24)?
Answer: Its AUC(0-t) is 3880 ng·h/mL.

Question: What about the Cmax ([5]; male, beagle, in vivo, dog Day 28 mean, 30 mg/kg Compound 1 PO, M, Compound 2 as metabolite) of the same molecule?
Answer: Its Cmax is 974 ng/mL.

Question: What about the AUC(0-t) ([5]; male, beagle, in vivo, dog Day 28 mean, 30 mg/kg Compound 1 PO, M, Compound 2 as metabolite, read-out: AUC0-24) of the same molecule?
Answer: Its AUC(0-t) is 7180 ng·h/mL.

From patent US20240293405A1, “(1H-PYRROLO[2,3-B]PYRIDIN-1-YL)PYRIMIDIN-2-YL-AMINO-PHENYL-ACRYLAMIDE INHIBITORS OF EGFR FOR USE IN THE TREATMENT OF BRAIN TUMORS” (Dana-Farber Cancer Institute, Inc., priority 2021, published 2024)
